Laboratory results as given in patent US20020001582A1, “Methods and compositions for inhibiting microbial growth” (priority 1999, published 2002).

Experiments:
Curvularia (Poa) (IM094) = experiment: Minimum effective treatment concentration, fungal plug in 1/5 potato dextrose broth; assay type: cell-based
Method: (§1) Fungal cultures isolated from turfgrass were collected from different sources including B.C. Ministry of Agriculture, Fisheries and Food and ATCC.
(§2) ⅕ potato dextrose broth was prepared and autoclaved in Erlenmeyer flasks and allowed to cool. Different amounts of egg white lysozyme (Canadian Inovatech, Inc., B.C.) was weighed out and added directly into the flasks. Ten milliliters of broth was dispensed into sterile petri dishes.
(§3) A fungal square (“plug”) of each culture was cut and placed in/near the center of each plate. The petri dishes were then incubated at 22-25° C. During incubation, the petri dishes were evaluated individually by measuring the diameter of fungal growth.

[1] = system: Fusarium (IM095, Turfgrass isolate); experiment: as above; assay type: cell-based
Method: as §1, §2, §3

[2] = system: Gaeumannomyces graminis 97-923 (IM099); experiment: as above; assay type: cell-based
Method: as §1, §2, §3

[3] = system: Gaeumannomyces graminis 97-923 (IM100); experiment: as above; assay type: cell-based
Method: as §1, §2, §3

[4] = system: Gaeumannomyces graminis var.avenae (IM084); experiment: as above; assay type: cell-based
Method: as §1, §2, §3

[5] = system: Rhizoctonia solani (IM085); experiment: as above; assay type: cell-based
Method: as §1, §2, §3

Rhizoctonia spp. (IM079) = experiment: as above; assay type: cell-based
Method: as §1, §2, §3

[6] = system: Sclerotinia homoeocarpa (IM088); experiment: as above; assay type: cell-based
Method: as §1, §2, §3

[7] = system: Typhula incarnata (IM086); experiment: as above; assay type: cell-based
Method: as §1, §2, §3

M. nivale = experiment: Suppression of fungal disease on young bentgrass, greenhouse trial; assay type: in vivo, M. nivale on creeping bentgrass (Agrotis spp.) cv. Penncross; settings: 5,000 and 10,000 ppm
Method: Creeping bentgrass (Agrotis spp.) cv. Penncross was used as the host in the greenhouse trials. This species is widely used in golf greens and is easily managed under greenhouse conditions. Bentgrass was seeded in 6 cm diameter and 5 cm height pots (made from PVC pipes) containing steam sterilized river washed sand. A seeding rate of 0.1 g/pot was used to ensure rapid establishment of a uniform, dense stand. Throughout the experiment, the grass was regularly watered, fertilized and maintained at a cutting height approximately 2.0 cm above the soil surface.
Virulent isolates of test fungi were grown on a rye grain medium for approximately one week. This medium consisted of 50 g of rye grain, 1 g of CaCO3, and 75 ml of water. It was prepared in a 250 ml Erlenmeyer flask and autoclaved for 30 minutes. Three to five plugs of the actively growing mycelia from week old cultures on potato dextrose agar were transferred into flasks, and incubated in the dark at room temperature.
Pots of eight-week-old bentgrass were inoculated with the test fungi by placing 2-3 kernels of infected rye in the center of the grass area, just above the soil surface. After inoculation, pots were placed in humidity chambers on a greenhouse bench. Temperature during incubation was maintained at 27-30° C. for disease development and the growth of the test fungi. […]

[8] = system: Phytophthora cinnamomi (IM194); experiment: Inhibition of Phytophthora by lysozyme in PD broth, % plate coverage; assay type: cell-based; settings: for fungal growth (% plate coverage): 2 weeks after inoculation
Method: Potato dextrose broth was prepared, poured into glass dilution bottles (100 ml each), autoclaved and allowed to cool. […] A fungal square (plug) of each culture was cut and placed in/near the center of each plate. Fungal growth was quantified by measuring the diameter of growth of each fungus while it was growing on the liquid media in each petri dish using a ruler. Each treatment was done in triplicate.
The experiment was repeated three times (three batches). The observation period for each batch was 2 weeks.
The fungal growth was expressed in % coverage of the petri dishes by the fungal patches. The calculation can be presented in the following equation:
(§4) Fungal growth (%)=(area of fungal patch/total plate area)×100

IM114 (Monilinia) = experiment: Inhibition of Monilinia by lysozyme in PD broth, % plate coverage; assay type: cell-based
Method: (§5) Monilinia was grown in petri dishes on PD agar. Potato dextrose broth was prepared, poured into glass dilution bottles (100 ml each), autoclaved and allowed to cool. […] A fungal square (plug) of each culture was cut and placed in/near the center of each plate. Fungal growth was quantified by measuring the diameter of growth of each fungus while it was growing on the liquid media in each petri dish using a ruler. Each treatment was done with triplicates. The experiment was repeated three times (three batches). The observation period for each batch was 2 weeks.
(§6) The fungal growth was expressed in % coverage of the petri dishes by the fungal patches. The calculation is presented in the following equation:
as §4
(§7) The average plate coverage for the treatments was plotted against the time after inoculation (FIGS. 20 and 21). Statistical analysis was carried out using SigmaStat (Version 2.0, SPSS Science, 1997).

IM115 (Monilinia) = experiment: as above; assay type: cell-based
Method: as §5, §6, §4, §7

With “lysozyme: type c egg white lysozyme, enzyme of approximately 129 amino acids; commercially available from Canadian Inovatech, Inc.” as the substance, how does the Comment (Curvularia (Poa) (IM094); 1000 ppm, 21 day) read?
Its Comment is “Fair-good”.

And the “Minimum effective treatment concentration of lysozyme” value (Curvularia (Poa) (IM094); duration of trial 21 day)?
Its value is 1000 ppm.

What about the Comment ([1]; 250 ppm, 25 day) of the same substance?
The Comment was “Excellent”.

What about the “Minimum effective treatment concentration of lysozyme” value ([1]; duration of trial 25 day) of the same substance?
Its value is 250 ppm.

What about the Comment ([2]; 1000 ppm, 21 day) of the same substance?
The Comment was “Excellent”.

And the “Minimum effective treatment concentration of lysozyme” value ([2]; duration of trial 21 day)?
The value was 1000 ppm.

What about the Comment ([3]; 1000 ppm, 21 day) of the same substance?
Its Comment is “Excellent”.

What about the “Minimum effective treatment concentration of lysozyme” value ([3]; duration of trial 21 day) of the same substance?
The value was 1000 ppm.

And the Comment ([4]; 500 ppm, 13 day)?
The Comment was “Excellent”.

And the “Minimum effective treatment concentration of lysozyme” value ([4]; duration of trial 13 day)?
Its value is 500 ppm.

What about the Comment ([5]; 250 ppm, 13 day) of the same substance?
Its Comment is “Fair-good”.

What about the “Minimum effective treatment concentration of lysozyme” value ([5]; duration of trial 13 day) of the same substance?
The value was 250 ppm.

And the Comment (Rhizoctonia spp. (IM079); 150 ppm, 38 day)?
Its Comment is “Excellent”.

What about the “Minimum effective treatment concentration of lysozyme” value (Rhizoctonia spp. (IM079); duration of trial 38 day) of the same substance?
The value was 150 ppm.

What about the Comment ([6]; 1000 ppm, 21 day) of the same substance?
Its Comment is “Fair-good”.

What about the “Minimum effective treatment concentration of lysozyme” value ([6]; duration of trial 21 day) of the same substance?
Its value is 1000 ppm.

And the Comment ([7]; 1000 ppm, 21 day)?
Its Comment is “Excellent”.

What about the “Minimum effective treatment concentration of lysozyme” value ([7]; duration of trial 21 day) of the same substance?
Its value is 1000 ppm.

And the “control against M. nivale” value (M. nivale)?
Its value is “good control”.

What about the “fungal growth (% plate coverage)” value ([8]; 50 ppm) of the same substance?
The value was 50%.

What about the “fungal growth (% plate coverage)” value ([8]; 100 ppm) of the same substance?
The value was 35%.

What about the “fungal growth compared with 100, 50 or 0 ppm (Tukey test)” value ([8]; 250, 500 or 1000 ppm, p<0.05) of the same substance?
Its value is “significantly lower”.

What about the “fungal growth (% plate coverage)” value ([8]; 250 ppm) of the same substance?
Its value is 7%.

What about the “fungal growth (% plate coverage)” value ([8]; 500 ppm) of the same substance?
The value was 4%.

And the “concentration that can significantly inhibit the growth for at least 2 weeks” value (IM114 (Monilinia); in general, in vitro, PD broth)?
Its value is 250-500 ppm.

What about the “concentration showing significant fungal growth reduction” value (IM114 (Monilinia); p<0.05) of the same substance?
Its value is 100 ppm.

And the “concentration that can significantly inhibit the growth for at least 2 weeks” value (IM115 (Monilinia); in general, in vitro, PD broth)?
The value was 250-500 ppm.

And the “concentration showing significant fungal growth reduction” value (IM115 (Monilinia); p<0.05)?
The value was 100 ppm.
